Usually melting point stands for the temperature of the solid-liquid transition.

Molecule `CCCCc1nc2cccc(C(=O)OC)c2n1Cc1ccc(-c2ccccc2-c2n[nH]c(=O)o2)cc1` registered a melting point of 204 to 205 °C.

As for `CNc1scc(C)c1C(=O)c1ccccc1`, the melting point lay within 144 to 145 °C.

With `O=C(c1ccccc1)c1ccc(Cl)nc1`, the melting point was 39 to 40 °C.

The molecule `COc1cc2ncnc(N3CCN(C(=S)Nc4ccc(CNC(=O)OC(C)(C)C)cc4)CC3)c2cc1OC` came in with a melting point of 123 to 126 °C.

As to `OC[C@]1(c2ccccc2)O[C@H]1c1ccccc1`, the melting point lay within 88 to 89 °C.

Turning to `O=c1[nH]c2cc(Cl)ccc2n1C1CCN(Cc2ccnc(-c3ccc(Cl)cc3)c2)CC1`, the melting point fell in the range of 186 to 188 °C.

`N#Cc1cccc2c1ccc1nc(O)c(O)nc12`: the melting point is above 300 °C.

`CCOC(=O)c1nc(CCS(=O)(=O)c2ccc(Cl)cc2)no1` showed a melting point of 115 to 119 °C.

The molecule `CNS(=O)(=O)c1cc(C(=O)CCl)ccc1Cl` came in with a melting point of 153 °C.

Molecule `COc1ccc(-c2nn(Cc3ccc(OCc4nc(-c5ccccc5)oc4C)cc3)cc2CCC(=O)O)cc1` showed a melting point of 137 to 138 °C.

With `FC(F)(F)c1cccc(C2=CCN(CCc3ccc(-c4ccccc4)cc3)CC2)c1`, the melting point was in the range of 114 to 116 °C.

As to `CC1CCNC(=C2C(=O)CC(C)(C)CC2=O)N1` (stereo not given), the melting point fell in the range of 164 to 165 °C.

The molecule `FC(F)(F)Sc1ccc(-c2ccc(Cl)cc2)[nH]1` returned a melting point of 34 to 39 °C.

On to `OCCCOc1c(Cl)cc(OCC=C(Cl)Cl)cc1Cl`, for which the melting point came to 56.6 °C.

The molecule `CCCc1nc(Sc2ccc(O)cc2)c(C=O)n1Cc1cc2c(cc1Cl)OCO2` came in with a melting point of 242 °C.

Turning to `COCCOc1ccc(NC=C(C#N)C(=O)Nc2cc(OC)c(Cl)cc2Cl)cc1I`, the melting point fell in the range of 209 to 210 °C.

In turn, `CC1Cc2cccc(S(=O)(=O)NC(C)(C)C)c2S1` (stereo not given) gave a melting point of 97 to 98 °C.

For the molecule `CC(C(=O)O)c1ccc(-c2ccc(Cl)cc2F)c(O)c1` (stereo not given), the melting point was 145 to 149 °C.

Molecule `COc1cccc2c(=O)c(C#N)c(N)oc12` showed a melting point of 300 °C.

Consider `COC(=O)c1c(C)nc2ccccc2c1NCc1ccc(Br)cc1`, for which the melting point came to 89 °C.

`CCCCc1oc2ccccc2c1-c1ncc(-c2ccc3c(Br)c(OCc4ccc(C(=O)OC)cc4)ccc3c2)o1` had a melting point of 143 to 145 °C.

On to `NC(=S)Nc1cc(Cl)cc(Cl)c1`, for which the melting point came out at 180 °C.

Consider `C[C@@H](N)C(=O)N(O)C(=O)OC(C)(C)C`, for which the melting point fell in the range of 115 to 117 °C.

With `O=C(Nc1cnc(-n2nc(C(F)(F)F)cc2C2CC2)nc1)c1c(F)cccc1F`, the melting point lay within 280 to 281 °C.

On to `CC1(C)CC(N2CCCCCC2=O)CC(C)(C)N1CCO`, for which the melting point lay within 141 to 142 °C.

`CCOc1ccc(-c2nc(-c3cccc(C(O)CO)n3)cs2)cc1OCC` (stereo not given) came in with a melting point of 112 °C.

For the molecule `CCCCC(=O)NC(C(=O)OCC)=C(N)SCCOC(C)=O`, the melting point stood at 84 °C.

Turning to `Nc1ccc2c(c1)C(=O)C1(CC1)S2`, the melting point was 148 to 150 °C.

The molecule `CCOC(=O)C(CC(C)C)(C(=O)OCC)[C@H](NC(C)=O)[PH](=O)O` came in with a melting point of 105 to 106 °C.

Molecule `CCS(=O)(=O)Nc1ccc(CN(CC2(c3ccccn3)CCCCC2)C(=O)Nc2c(C(C)C)cccc2C(C)C)cc1` came in with a melting point of 209 °C.

The molecule `CCOC(=O)c1cnc2c(c(C)nc3cc(C)nn32)c1NC(C)CC` (stereo not given) registered a melting point of 113 to 115 °C.

As for `CSc1nn2c(Cl)cc(CN3CCOCC3)nc2c1S(=O)(=O)c1ccccc1`, the melting point lay within 174 to 176 °C.

Molecule `CCN1c2cscc2C(=O)N(CCN(C)C)c2ccccc21` returned a melting point of 75 to 77 °C.

Turning to `CC(c1ccc(C(=O)O)cc1)c1cc2cc(C(F)(F)F)ccc2n1S(=O)(=O)c1cccc(C(C)(C)C)c1` (racemic), the melting point was 212 °C.

The molecule `COCCOC1C(O)C(CO)OC1n1cnc2c(N)nc(N)nc21` (stereo not given) yielded a melting point of 152 to 154 °C.

On to `CC(=O)NNc1ccc(-n2c(-c3ccccc3)csc2=S)cc1`, for which the melting point lay in the range of 230 to 232 °C.

With `O=C1Nc2ccc(Cl)cc2C1c1ccccc1Cl` (stereo not given), the melting point lay in the range of 198 to 200 °C.

Molecule `FC(F)(F)c1cccc2c1SSSSS2` showed a melting point of 55 to 60 °C.

Consider `C=CCOC(=O)c1ccc(-c2ccc3cc(C(=O)OCC)c(C45CC6CC(CC(C6)C4)C5)cc3c2OCCCCC)cc1`, for which the melting point was in the range of 116 to 117 °C.

`CCOC(=O)c1c(C)nc(S)c([N+](=O)[O-])c1NCCCN(C)C` returned a melting point of 131 to 132 °C.

In turn, `CC(=O)n1nc(SCc2ccccc2)nc1N` displayed a melting point of 146 °C.

`C[C@@H]1CNC[C@H]2Cc3c(ncc(F)c3C=NO)N21`: the melting point was 195 to 197 °C.

In the case of `COC1CCN(c2c(Cl)cc3c4c(cccc24)C(=O)N(O)C3=O)C1` (stereo not given), the melting point lay within 136 to 142 °C.

`NC(=O)N1Cc2c(-c3ccc(F)cc3)ncn2-c2ccccc21` yielded a melting point of 222 to 223 °C.

Molecule `CCOC(=O)c1cnc2n(c1=O)C(C)CCC2=NNc1ccc(Cl)cc1` (stereo not given) yielded a melting point of 177 to 178 °C.

`Cc1ccc(OCc2c(F)cccc2Cl)c(NC(=N)Nc2ccc(Cl)cc2)n1` yielded a melting point of 148 to 149 °C.

With `O=c1[nH]c2ccccc2c(=O)n1C1CCN(Cc2ccccc2)CC1`, the melting point is 223 °C.

`CC(C)(C)OC(=O)N1CCC(S(C)(=O)=O)CC1` showed a melting point of 94 to 95 °C.

`O=C(OCC1CC1)c1ncn2c1[C@@H]1CCCN1C(=O)c1ccccc1-2` registered a melting point of 189 to 190 °C.

`CCC(C)C(C)C(=O)Nc1ccc2ncn3c(=O)c(C(=O)O)cnc3c2c1` (stereo not given) registered a melting point of 286 to 288 °C.

In the case of `Oc1ccc2cc(-c3noc4ccc(O)cc34)ccc2c1`, the melting point lay within 250 to 252 °C.

In turn, `CCOC(=O)c1ccc2c(Br)cccc2c1` came in with a melting point of 52 to 54 °C.

In turn, `CCOC(=O)c1cc(-n2c(=O)[nH]c(C)c(C)c2=O)ccc1Cl` registered a melting point of 202 to 204 °C.

With `COc1cc2c(cc1OCc1ccccc1)ncc1c(N)nc(-n3ccnc3)cc12`, the melting point stood at 140 °C.

Turning to `CC(C)Sc1cc(O)c(N)c(C#N)c1`, the melting point lay within 145 to 146 °C.

With `CCC(C1CCCC1)C(O)(c1ccc(O)cc1)c1ccc(OCCN(C)C)cc1` (stereo not given), the melting point lay within 112 to 120 °C.

`O=C(O)c1cc(F)c(N2CCNCC2)nc1Nc1ccc(F)cc1F` returned a melting point of 279 to 281 °C.

`CNC1(c2ccccc2Cl)C(=O)N(S(=O)(=O)c2ccc(NC(=O)c3ccccc3Cl)cc2)c2ccc(Cl)cc21` (stereo not given) registered a melting point of 221 to 222 °C.

`O=C(c1ccc(I)cc1)N1CCCCC1` came in with a melting point of 126 to 127 °C.

`O=C(/C=C/c1ccccc1Sc1ccc(Cl)cc1)NC1CCC(O)CC1` (stereo not given): the melting point was 86 to 88 °C.

For `CCCCCCCCC(=CC=C(O)C(=O)OCC)C(=O)OCC`, the melting point stood at 58 °C.

`Cc1cc2oc(=O)c3c(c2cc1Cl)CC(N1CC2CCCC(C2)C1)NC3` (stereo not given) came in with a melting point of 147 to 149 °C.

In turn, `COc1ccc(CNC(=O)c2ccc3ccccc3c2Br)cc1` gave a melting point of 155 °C.

Consider `CC(C)(C)OC(=O)C(CO)NC(=O)c1coc(-c2cocn2)n1` (stereo not given), for which the melting point lay in the range of 85 to 87 °C.

In turn, `NS(=O)(=O)c1ccc(NC(=O)CNc2ccccc2)c(F)c1` showed a melting point of 197 to 198 °C.

(Values after a melting point compilation (Tetko et al.; mined from patent text by program, amines drawn as free bases though some values may be those of a salt).)
